Measured values taken from patent US20230381122A1, “APPLICATION OF N1-DIHYDROCAFFEOYL-N10-CAFFEOYLSPERMIDINE IN PREPARATION OF DRUG, HEALTH PRODUCT OR FUNCTIONAL FOOD” (NINGXIA MEDICAL UNIVERSITY, priority 2022, published 2023).

Assays:
[1] = tested on: PCPA-induced insomnia model of mice; assay: Number of autonomous activities of mice, PCPA-induced insomnia model; type: in vivo; conditions: for Number of autonomous activities, after last administration / Number of autonomous activities, before administration: number in 5 min; for Number of autonomous activities, after last administration: half an hour after administration on the 7th day, PCPA insomnia mice; for Number of autonomous activities, before administration: baseline after PCPA modeling
Procedure: (§1) The pharmacodynamic evaluation of N1-dihydrocaffeoyl-N10-caffeoylspermidine for improving sleep effect was performed in a mouse insomnia model induced by injection of para-chlorophenylalanine (PCPA). The sedative hypnotic effect of N1-dihydrocaffeoyl-N10-caffeoylspermidine in mice with insomnia were evaluated by behavioral evaluation methods, such as recording of the number of autonomous activities, recording of body weight and inducing sleep experiments in mice with pentobarbital sodium. Brain tissues was obtained to determine the levels of neurotransmitters 5-HT, 5-HIAA, GABA and Glu, and to explore the possible mechanism of the sleep improving effect of N1-dihydrocaffeoyl-N10-caffeoylspermidine.
(§2) Healthy SPF grade male ICR mice (18-22 g) were obtained, which were provided by the animal experimental center of Ningxia Medical University (laboratory animal license number SCXK (Ningxia Medical University) 2020-0001). The mice were adaptively housed in a standard SPF grade laboratory with the same animal housing conditions for each group: ambient temperature (25° C.), relative humidity (50%-60%). The mice were free access to food and water.
(§3) After adaptive feeding, for 2 days of continuous modeling, the normal control group was given normal saline (0.1 mL/10 g/d), and the remaining groups received an intraperitoneal injection of PCPA suspension (400 mg/kg/d).
(§4) The mice in each group were administered sequentially from 8:00 am to 12:00 am daily for 7 days.
(1) Number of autonomous activities: after grouping as above, the number of autonomous activities of mice in 5 min was recorded after successful modeling and half an hour after administration on the 7th day, respectively. Mice were acclimatized into the apparatus for 3 min before each recording.

[2] = Body weight of mice, PCPA-induced insomnia model; type: in vivo; conditions: for Body weight, 3rd day of administration / Body weight, 7th day of administration: PCPA insomnia mice; for Body weight, after molding: after PCPA modeling, before administration; for Body weight, before molding: baseline before PCPA modeling
Procedure: as §1, §2, §3, §4
(2) Body weight: the body weight of mice in each group was recorded before modeling, after modeling, on the 3rd, 7th day of drug administration, respectively.

[3] = tested on: PCPA-induced insomnia model of mice; assay: Righting reflex experiment with pentobarbital sodium: sleep latency and sleep duration; type: in vivo; conditions: for Sleep duration / Sleep latency: pentobarbital sodium 50 mg/kg i.p. one hour after administration on the 7th day, PCPA insomnia mice
Procedure: as §1, §2, §3, §4
(3) Righting reflex experiment to determine sleep duration: one hour after administration on the 7th day, mice in each group were intraperitoneally injected with pentobarbital sodium suspension (50 mg/kg), and the sleep latency and sleep duration of mice were recorded. (Sleep latency was recorded from the end of the intraperitoneal injection until the disappearance of the mouse righting reflex for more than 1 min; time from falling asleep to the recovery of the mouse righting reflex was recorded as sleep duration.)

5-HIAA = 5-HIAA level in brain tissue by ELISA; type: in vivo, mice; conditions: for 5-HIAA: brain tissue, PCPA insomnia mice
Procedure: as §1, §3, §4
(§5) After administration for 7 days, the mice were sacrificed by cervical dislocation, the brains were removed by decapitation on an ice table, ground evenly with a tissue homogenizer, and normal saline was added to make 10% brain tissue homogenate. The homogenate was centrifuged at 3000 r/min for 15 min at 4° C., then supernatants were collected, and levels of neurotransmitters 5-HT, 5-HIAA, Glu, and GABA were determined by ELISA.

GABA = GABA level in brain tissue by ELISA; type: in vivo, mice; conditions: for GABA: brain tissue, PCPA insomnia mice
Procedure: as §1, §3, §4, §5

Glu = Glu level in brain tissue by ELISA; type: in vivo; conditions: PCPA insomnia mice
Procedure: as §1, §3, §4, §5

Glu/GABA = Glu/GABA ratio in brain tissue; type: in vivo, mice; conditions: for Glu/GABA: brain tissue, PCPA insomnia mice
Procedure: as §1, §3, §4, §5

5-HT = 5-HT level in brain tissue by ELISA; type: in vivo, mice; conditions: for 5-HT: brain tissue, PCPA insomnia mice
Procedure: as §1, §3, §4, §5

[4] = 10 mg/kg/d for 7 days, listed as positive drug
[5] = positive drug group (melatonin 10 mg/kg/d)
[6] = 10 mg/kg/d, listed as positive drug
[7] = 10 mg/kg/d for 7 days, 10 mg/kg/day
[8] = 10 mg/kg/d for 7 days, listed as positive drug, 10 mg/kg/day
[9] = groups at all doses (2, 40, 100 mg/kg/d), p<0.001
[10] = high dose 100 mg/kg/d for 7 days
[11] = medium dose 40 mg/kg/d for 7 days
[12] = groups at all doses (2, 40, 100 mg/kg/d), p<0.05

For `COc1ccc2[nH]cc(CCNC(C)=O)c2c1` [Positive drug, melatonin, reference compound], the “Number of autonomous activities, after last administration” value ([1]; 10 mg/kg/d for 7 days) was 174 ± 20.81, the “Number of autonomous activities, after last administration” value [1, 4] was “significantly decreased” and the “Number of autonomous activities, before administration” value [1, 5] was 267 ± 15.15. The “Body weight, 3rd day of administration” value ([2]; 10 mg/kg/d) was 31.33 ± 4.21 g, the “Body weight, 7th day of administration” value ([2]; 10 mg/kg/d) was 33.67 ± 3.80 g and the “Body weight, 3rd day of administration” value [2, 6] was “increased significantly”. For the same molecule, the “Body weight, 7th day of administration” value [2, 6] was “increased significantly”, the “Body weight, after molding” value [2, 5] was 26.26 ± 3.39 g and the “Body weight, before molding” value [2, 5] was 26.51 ± 2.23 g. The Sleep duration ([3]; 10 mg/kg/d for 7 days) was 26.4 ± 6.92 min, the Sleep latency ([3]; 10 mg/kg/d for 7 days) was 226.00 ± 18.42 s and the Sleep duration [3, 4] was “increased significantly”. The Sleep latency [3, 4] was “significantly reduced”, the 5-HIAA (5-HIAA; [7]) was 37.15 ± 1.56 ng/g and the 5-HIAA (5-HIAA; [8]) was “significantly increased”. For the same molecule, the GABA (GABA; [7]) was 6.89 ± 1.11 nmol/L, the GABA (GABA; [8]) was 6.89 ± 1.11 nmol/L and the Glu (Glu; [7]) was 53.52 ± 7.23 μmol/gprot. The Glu (Glu; [8]) was 53.52±7.23 μmol/gprot, the Glu/GABA (Glu/GABA; [7]) was 8.51 ± 1.55 and the Glu/GABA (Glu/GABA; [8]) was “significantly reduced”.

With `O=C(/C=C/c1ccc(O)c(O)c1)NCCCNCCCCNC(=O)CCc1ccc(O)c(O)c1` [(E)-3-(3,4-dihydroxyphenyl)-N-(3-((4-(3,4-dihydroxyphenyl)propanamido)butyl)amino) propyl) acrylamide] the “Number of autonomous activities, before administration” value ([1]; high dose group (100 mg/kg/d)) was 248 ± 18.38, the “Number of autonomous activities, before administration” value ([1]; low dose group (2 mg/kg/d)) was 249 ± 22.30 and the “Number of autonomous activities, before administration” value ([1]; medium dose group (40 mg/kg/d)) was 246 ± 16.13. The “Number of autonomous activities after last administration compared with before administration” value [1, 9] was “significantly decreased”, the “Number of autonomous activities, after last administration” value [1, 10] was 167 ± 43.35 and the “Number of autonomous activities, after last administration” value ([1]; low dose 2 mg/kg/d for 7 days) was 172 ± 26.39. For the same molecule, the “Number of autonomous activities, after last administration” value [1, 11] was 179 ± 17.43, the “Body weight, after molding” value ([2]; high dose group (100 mg/kg/d)) was 26.87 ± 2.71 g and the “Body weight, after molding” value ([2]; low dose group (2 mg/kg/d)) was 27.08 ± 3.74 g. The “Body weight, after molding” value ([2]; medium dose group (40 mg/kg/d)) was 27.33 ± 2.13 g, the “Body weight, before molding” value ([2]; high dose group (100 mg/kg/d)) was 26.18 ± 2.78 g and the “Body weight, before molding” value ([2]; low dose group (2 mg/kg/d)) was 26.74 ± 2.63 g. For the same molecule, the “Body weight, before molding” value ([2]; medium dose group (40 mg/kg/d)) was 25.95 ± 1.99 g, the “Body weight on the 3rd day of administration compared with the model group” value [2, 9] was “increased significantly” and the “Body weight, 3rd day of administration” value ([2]; high dose 100 mg/kg/d) was 32.36 ± 2.39 g. For the same molecule, the “Body weight, 3rd day of administration” value ([2]; low dose 2 mg/kg/d) was 32.02 ± 2.63 g, the “Body weight, 7th day of administration” value ([2]; low dose 2 mg/kg/d) was 31.83 ± 2.77 g and the “Body weight, 3rd day of administration” value ([2]; medium dose 40 mg/kg/d) was 31.34 ± 1.76 g. For the same molecule, the “Body weight, 7th day of administration” value ([2]; medium dose 40 mg/kg/d) was 32.12 ± 1.44 g, the “Sleep duration compared with the model group” value [3, 12] was “increased significantly” and the Sleep duration [3, 10] was 17.5 ± 3.15 min. It also gave a Sleep duration ([3]; low dose 2 mg/kg/d for 7 days) of 16.6 ± 9.53 min, a Sleep duration [3, 11] of 19.9 ± 5.72 min and a Sleep latency [3, 11] of 298.50 ± 29.08 s. For the same molecule, the 5-HT (5-HT; [10]) was 302.55 ± 17.00 ng/g, the 5-HT (5-HT; low dose 2 mg/kg/d for 7 days) was 271.37 ± 27.58 ng/g and the 5-HT (5-HT; [11]) was 283.18 ± 9.86 ng/g. The “5-HT content in brain tissues compared with the model group” value (5-HT; [12]) was “significantly increased”, the 5-HIAA (5-HIAA; [10]) was 36.61 ± 1.84 ng/g and the 5-HIAA (5-HIAA; low dose 2 mg/kg/d for 7 days) was 33.79 ± 2.51 ng/g. For the same molecule, the 5-HIAA (5-HIAA; [11]) was 36.69 ± 2.00 ng/g, the “5-HIAA content in brain tissues compared with the model group” value (5-HIAA; groups at all doses (2, 40, 100 mg/kg/d), p<0.01) was “significantly increased” and the GABA (GABA; [10]) was 9.66 ± 1.30 nmol/L. For the same molecule, the GABA (GABA; low dose 2 mg/kg/d for 7 days) was 8.53 ± 1.03 nmol/L, the GABA (GABA; [11]) was 9.69 ± 0.98 nmol/L and the “GABA content in brain tissues compared with the model group” value (GABA; groups at different doses (2, 40, 100 mg/kg/d), p<0.01) was “significantly increased”. The Glu (Glu; [10]) was 63.90 ± 2.88 μmol/gprot, the Glu (Glu; low dose 2 mg/kg/d for 7 days) was 64.84 ± 4.18 μmol/gprot and the Glu/GABA (Glu/GABA; [10]) was 7.66 ± 1.03. For the same molecule, the Glu/GABA (Glu/GABA; low dose 2 mg/kg/d for 7 days) was 7.23 ± 1.90, the Glu/GABA (Glu/GABA; [11]) was 7.17 ± 1.20 and the “Glu/GABA values in brain tissues compared with the model group” value (Glu/GABA; groups at different doses (2, 40, 100 mg/kg/d), p<0.05) was “significantly reduced”.
